{"source": "paper PMC4941645", "about": "“Oxidative Stress Induced by Pt(IV) Pro-drugs Based on the Cisplatin Scaffold and Indole Carboxylic Acids in Axial Position” (Scientific Reports, 2016)", "key": {"[1]": {"test_system": "BxPC3 pancreatic carcinoma cells", "experiment": "MTT cytotoxicity test, BxPC3", "type": "cell-based, human", "conditions": "BxPC3, 72 h, MTT, ± S.D.", "protocol": "(§1) The cytotoxic activity of the complexes and of the uncoordinated ligands was evaluated by the MTT test on a panel of human tumor cell lines containing examples of pancreatic (BxPC3), colorectal (HCT-15), breast (MCF-7), cervical (A431), and lung (A549) cancers as well as of melanoma (A375). For comparison purposes, the cytotoxicity of cisplatin was evaluated under the same experimental conditions.\n(§2) Cisplatin was dissolved in 0.9% NaCl solution.\n(§3) Human breast (MCF-7), colon (HCT-15), lung (A549) and pancreatic (BxPC3) carcinoma cell lines together with melanoma (A375) cells were obtained from American Type Culture Collection (ATCC, Rockville, MD). The human ovarian cancer cell line 2008 and its cisplatin resistant variant, C13*, were kindly provided by Prof. G. Marverti (Department of Biomedical Science of Modena University, Italy). Human cervical carcinoma (A431) cells were kindly provided by Prof. F. Zunino (Division of Experimental Oncology B, Istituto Nazionale dei Tumori, Milan, Italy). Cell lines were maintained in the logarithmic phase at 37 °C in a 5% carbon dioxide atmosphere using the following culture media containing 10% fetal calf serum (Euroclone, Milan, Italy), antibiotics (50 units/mL penicillin and 50 μg/mL streptomycin) and 2 mM L-glutamine: (i) RPMI-1640 medium (Euroclone) for 2008, C13*, MCF-7, HCT-15, A431 and BxPC3 cells, (ii) F-12 HAM’S (Sigma Chemical Co.) for A549 cells, iii) DMEM (Sigma Chemical Co.) for A375 cells.\n(§4) The growth inhibitory effect toward tumor cells was evaluated by means of the MTT assay. Briefly, (3–8) × 10^3 cells/well, dependent upon the growth characteristics of the cell line, were seeded in 96-well microplates in growth medium (100 μL). After 24 h, the medium was removed and replaced with fresh medium containing the compound to be studied at the appropriate concentration. Triplicate cultures were established for each treatment. After 24, 48, or 72 h, each well was treated with 10 μL of a 5 mg/mL MTT saline solution and, after 5 h of incubation, 100 μL of a sodium dodecylsulfate (SDS) solution in 0.01 M HCl was added. After an overnight incubation, cell growth inhibition was detected by measuring the absorbance of each well at 570 nm using a Bio-Rad 680 microplate reader. The mean absorbance for each drug dose was expressed as a percentage of the control, untreated well absorbance and plotted vs drug concentration. The IC50 values, the drug concentrations that decrease the mean absorbance at 570 nm to 50% of that of untreated control wells, were calculated from the dose–response curves with the four-parameter logistic model (4PL). The final value is the mean ± S.D. of at least three independent experiments performed in triplicate."}, "[2]": {"test_system": "HCT-15 colon carcinoma cells", "experiment": "MTT cytotoxicity test, HCT-15", "type": "cell-based, human", "conditions": "HCT-15, 72 h, MTT, ± S.D.", "protocol": "as §1, §2, §3, §4"}, "[3]": {"test_system": "MCF-7 breast carcinoma cells", "experiment": "MTT cytotoxicity test, MCF-7", "type": "cell-based, human", "conditions": "MCF-7, 72 h, ± S.D.", "protocol": "as §1, §2, §3, §4"}, "[4]": {"test_system": "A431 cervical carcinoma cells", "experiment": "MTT cytotoxicity test, A431", "type": "cell-based, human", "conditions": "A431, 72 h, ± S.D.", "protocol": "as §1, §2, §3, §4"}, "[5]": {"test_system": "A549 lung carcinoma cells", "experiment": "cells", "conditions": "A549, 72 h, MTT, ± S.D.", "protocol": "as §1, §2, §3, §4"}, "[6]": {"test_system": "A375 melanoma cells", "experiment": "MTT cytotoxicity test, A375", "type": "cell-based, human", "conditions": "A375, 72 h, ± S.D.", "protocol": "as §1, §2, §3, §4"}, "[7]": {"test_system": "2008 ovarian cancer cells", "experiment": "MTT cytotoxicity test, cisplatin-sensitive 2008", "type": "cell-based, human", "conditions": "2008 cisplatin-sensitive, 72 h, ± S.D.", "protocol": "The cytotoxic properties of the complexes were also evaluated in a pair of tumor cell lines suitably selected for their sensitivity and resistance to cisplatin (adenocarcinoma cells 2008/C13^*). Cross-resistance profiles were evaluated by means of the resistance factor (RF), defined as the ratio between IC50 values calculated for the resistant cells and those obtained with the sensitive ones (Table 2). The phenomenon of cisplatin resistance is multifactorial in nature. Nevertheless, the main molecular mechanisms involved in drug resistance in C13* cancer cells have largely been identified. Indeed, in this cell line resistance is correlated to high cellular glutathione and thioredoxin reductase levels, reduced cellular drug uptake and enhanced repair of DNA damage. […] The RF values calculated for all derivatives were six- to nine-fold lower than that of cisplatin, clearly indicating the absence of cross-resistance.\nas §2\nTriplicate cultures were established for each treatment."}, "[8]": {"test_system": "C13* cisplatin-resistant ovarian cancer cells", "experiment": "MTT cytotoxicity test, cisplatin-resistant C13*", "type": "cell-based, human", "protocol": "The cytotoxic properties of the complexes were also evaluated in a pair of tumor cell lines suitably selected for their sensitivity and resistance to cisplatin (adenocarcinoma cells 2008/C13^*). Cross-resistance profiles were evaluated by means of the resistance factor (RF), defined as the ratio between IC50 values calculated for the resistant cells and those obtained with the sensitive ones (Table 2). The phenomenon of cisplatin resistance is multifactorial in nature.\nas §2, §3, §4"}, "[9]": {"experiment": "Log P octanol/water, shake flask method with ICP-MS", "type": "physicochemical", "conditions": "n-octanol / 0.9% NaCl water, Pt by ICP-MS", "protocol": "Partition coefficients (logP values) for octanol/water partition were determined in order to examine whether a correlation exists between lipophilicity and accumulation into cells. The log P values obtained (Table 3) give the trend in lipophilicity as mono indole acid complex < succinate complex < acetate complex < bis indole acid complex < benzoate complex for both the IAA and the IPA series.\nThe logP values of the Pt(IV) compounds were determined using the shake flask method. The respective Pt(IV) complex was dissolved in 0.9% NaCl (w/v) ultrapure water (presaturated with n-octanol). The solutions were sonicated and filtered to remove undissolved Pt(IV) compounds. The initial Pt concentrations were determined by ICP-MS. Subsequently, the Pt(IV) solutions were added to an equal volume of n-octanol (presaturated with 0.9% NaCl (w/v) ultrapure water). The heterogeneous mixtures were shaken vigorously for 30 min before centrifuging at 4000 rpm for 30 min to achieve phase separation. The final Pt concentration in the aqueous phase was determined again by ICP-MS. The logarithm of the ratio of Pt concentrations in the organic and aqueous phases was calculated to determine the logP values. All experiments were done in duplicate."}, "[10]": {"test_system": "panel of human tumor cell lines (BxPC3, HCT-15, MCF-7, A431, A549, A375)", "experiment": "MTT cytotoxicity, mean over panel of human tumor cell lines", "type": "cell-based", "conditions": "mean over the six cell lines of Table 1, 72 h", "protocol": "as §1, §4"}, "[11]": {"experiment": "Stability in physiological saline by mass spectrometry", "type": "physicochemical", "conditions": "0.9% NaCl", "protocol": "Ten indole carboxylic acid Pt(IV) complexes with IAA (indole-3-acetic acid, 1A–5A) and IPA (indole-3-propionic acid, 1P–5P) were synthesized and the structures are depicted in Fig. 3. The monocarboxylato complexes 1A and 1P were prepared by reacting oxoplatin, c,c,t-[Pt(NH3)2Cl2(OH)2], with 0.8 eq. of the activated NHS-ester of the corresponding indole carboxylic acid. The dicarboxylato complexes with two indole acids in axial position (2A and 2P) were obtained using an excess of the NHS-ester activated acid (20 eq.), since the second hydroxo group of oxoplatin is much less reactive than the first one. The unsymmetrically substituted complexes (3A–5A and 3P–5P) were prepared by reaction of the monocarboxylate complexes 1A and 1P with the corresponding anhydrides. We chose three different anhydrides (benzoic, acetic and succinic anhydride) to vary the lipophilicity of the resulting Pt(IV) complexes. All the synthesized Pt(IV) complexes were characterized using elemental analysis, ESI-MS, FT-IR, ^1H and ^195Pt NMR spectroscopy. The purity of the complexes has been assessed through elemental analysis and–where solubility was not an issue–by high performance liquid chromatography (HPLC). The dicarboxylato complexes are poorly soluble in organic solvents. The proton NMR spectra of the complexes in DMSO-d6 show the typical signal of the NH3 protons which is a multiplet at around 6 ppm for the monocarboxylato complexes 1P and 1A (typical ^1JNH and ^2JPtH values around 50 Hz) while it is a broad signal around 6.5 ppm for the bis-substituted complexes (2–5A and 2–5P, Supplementary Information)[44]. The mass spectra of the complexes show a peak in the negative mode with the typical platinum isotope pattern corresponding to M − H^− or M + Cl^−. Stability studies on representative examples of the complexes (1A, 1P, 3A and 3P) via mass spectrometry confirm that the complexes are stable in physiological saline (0.9% NaCl) for at least 48 h (Supplementary Information).\nComplexes 1A, 1P, 3A and 3P where dissolved in a minimum amount of DMF and diluted 1:20 with physiological saline (0.9% NaCl). Mass spectra were recorded at t = 0 and after 48 hours."}, "[12]": {"test_system": "A375 melanoma cells", "experiment": "Cellular accumulation of Pt (GF-AAS)", "type": "cell-based, human", "conditions": "A375, 1.5 and 3 μM, 6 and 24 h"}}}
{"compound": "[NH2][Pt]([NH2])([Cl])([Cl])([O]C(=O)CCc1c[nH]c2ccccc12)[O]C(=O)c1ccccc1", "note": "[Complex 3P]", "values": [{"measurement": "IC50", "setting": "[1]", "value": "2920 ± 1130", "unit": "nM"}, {"measurement": "IC50", "setting": "[2]", "value": "5940 ± 630", "unit": "nM"}, {"measurement": "IC50", "setting": "[3]", "value": "2280 ± 460", "unit": "nM"}, {"measurement": "IC50", "setting": "[4]", "value": "2000 ± 320", "unit": "nM"}, {"measurement": "IC50", "setting": "[5]", "value": "960 ± 60", "unit": "nM"}, {"measurement": "IC50", "setting": "[6]", "value": "1510 ± 1250", "unit": "nM"}, {"measurement": "IC50", "setting": "[7]", "value": "4790 ± 690", "unit": "nM"}, {"measurement": "IC50", "setting": "[8]; C13* cisplatin-resistant, 72 h, MTT, ± S.D.", "value": "1470 ± 680", "unit": "nM"}, {"measurement": "RF (resistance factor)", "setting": "[8]; IC50 resistant (C13*) / parent line (2008)", "value": 0.3}, {"measurement": "Log P (octanol/water)", "setting": "[9]", "value": "−0.028 ± 0.07"}, {"measurement": "IC50", "setting": "[10]", "value": 2600, "unit": "nM"}, {"measurement": "stable in physiological saline", "setting": "[11]", "value": "at least 48 h"}, {"measurement": "cellular platinum accumulation (in words)", "setting": "[12]", "value": "internalized most efficiently"}]}
